Results on three molecules are retold here after patent US7723307B2, “Amino acid derivatives and pharmaceutical uses thereof” (Aston University, priority 2003, dated 2010).

The structures appear in SMILES notation.

The target in one test is T1, tissue transglutaminase (UniProt P08587).
T1 sequence (P08587 1-690): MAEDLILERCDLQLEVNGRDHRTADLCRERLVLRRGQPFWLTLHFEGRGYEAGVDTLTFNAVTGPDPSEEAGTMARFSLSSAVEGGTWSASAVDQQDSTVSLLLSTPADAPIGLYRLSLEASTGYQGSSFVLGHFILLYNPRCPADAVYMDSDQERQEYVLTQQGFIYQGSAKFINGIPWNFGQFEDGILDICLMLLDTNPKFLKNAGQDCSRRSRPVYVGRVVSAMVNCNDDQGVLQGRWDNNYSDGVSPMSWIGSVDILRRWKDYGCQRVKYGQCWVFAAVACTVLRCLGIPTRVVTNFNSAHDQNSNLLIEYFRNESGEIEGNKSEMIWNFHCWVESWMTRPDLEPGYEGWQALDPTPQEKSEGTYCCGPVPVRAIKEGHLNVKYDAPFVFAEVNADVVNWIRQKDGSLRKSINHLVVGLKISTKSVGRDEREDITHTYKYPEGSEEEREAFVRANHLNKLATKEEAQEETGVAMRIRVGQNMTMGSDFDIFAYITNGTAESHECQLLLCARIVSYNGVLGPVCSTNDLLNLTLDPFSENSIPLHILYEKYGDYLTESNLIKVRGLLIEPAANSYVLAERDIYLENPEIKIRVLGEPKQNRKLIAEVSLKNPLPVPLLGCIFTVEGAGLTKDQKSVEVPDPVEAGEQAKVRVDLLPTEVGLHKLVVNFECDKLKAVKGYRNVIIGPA
Kind of test: TGase-mediated crosslinking of fibronectin, SDS-PAGE. The conditions noted are these: compound 250 μM, TGase and fibronectin 50 μg/ml each, 37° C. for 2 hr. The class given is biochemical. The procedure:
• 1. Preactivate TGase in 3 mM DTT (where applicable) on ice for 1 hr. • 2. Crosslink TGase with fibronectin in 40 mM Tris/100 mM NaCl at 50 μg/ml final concentration each, according to Table 1 below. Include non-activated Tgase/preactivated Tgase controls in the presence and absence of the inhibitors to investigate potential homodimer formation. • 3. Incubate at 37° C. for 2 hr to allow crosslink formation to take place. • 4. Solubilise crosslink in 2× Laemmli buffer. Vortex and spin down insoluble material. • 5. Load 20 μg of total protein (Tgase+Fn) on a 7% acrylamide SDS PAGE gel. Run gel at […] until dye escapes from the bottom of the gel. • 6. Stain with coomassie brilliant blue for 1 hr at RT. • 7. De-stain in 30% methanol/10% acetic acid at RT.
SDS-PAGE data showing tTGase-mediated crosslinking of fibronectin following treatment with exemplary compounds of the invention is shown in FIG. 22.

The subject of test [1] is TGase. Kind of test: 14C-putrescine incorporation into N,N'-dimethyl casein in kidney homogenates of treated SNx rats. The conditions noted are these: day 84. The class given is in vivo, rat. The source says:
(§1) Male Wistar rat of approximately 300 g weight was anaesthetised using 5% halothane and maintained at 3% for the duration of the surgical procedure. The rat was subjected to a ⅚th subtotal nephrectomy (SNx) by ligation of the left renal artery and vein followed by complete nephrectomy of the left kidney. The right kidney had both the upper and lower poles ligated followed by excision of both poles. A 9-cm cannula (0.32 mm bore) was sealed on one end and fenestrated between 3 and 12 mm from the sealed end. This was then inserted through the parenchyma (cut to cut/pole to pole) of the kidney so that the blunt end was just visible through one of the cut ends. This was then sealed in position using tissue glue on both ends of the kidney such that the fenestrated area was within the remnant kidney. The cannula was passed through the muscle wall, which was then stitched using reabsorbable sutures. The cannula was then attached to the regulator of a 2 ml osmotic minipump (Azlet osmotic minipump (2 ml4), Charles Rivers, UK) that was loaded (primed for 15 hrs at RT) with either PBS (SNx) or TGase inhibitor 281 or 283 (SNx+281 and SNx+283, respectively) at a concentration of 50 mM (delivery 1.5 μl per hour). The pump was then positioned subcutaneously on the right upper flank of the animal and the skin sutured. […]

Test [2] relates to TGase. Put plainly: In situ TGase activity in kidney cryostat sections of treated SNx rats. In kind it is in vivo, rat. The settings on record: SNx rats treated for 28 days, biotin cadaverine incorporation.
Excerpt: as §1, with “sutures.” for “sutures. The cannula was then attached to the regulator of a 2 ml osmotic minipump (Azlet osmotic minipump (2 ml4), Charles Rivers, UK) that was loaded (primed for 15 hrs at RT) with either PBS (SNx) or TGase inhibitor 281 or 283 (SNx+281 and SNx+283, respectively) at a concentration of 50 mM (delivery 1.5 μl per hour). The pump was then positioned subcutaneously on the right upper flank of the animal and the skin sutured.”
Rat kidneys treated in vivo with TGase inhibitors were snap-frozen in liquid nitrogen and 14 μm sections were cut using a cryostat and allowed to air-dry. […] Slides were viewed on a Leica TCSNT confocal microscope equipped with excitation and emission filters for Cy5, and emitted fluorescence was quantified with the software supplied by the manufacturer. […]

The subject of the next test is SNx rats. Put plainly: Renal function in subtotal nephrectomy (SNx) rats with inhibitor instilled into the kidney by osmotic minipump. In kind it is in vivo, rat. The settings on record: 90 day SNx rats, inhibitor 50 mM instilled into kidney, 5 animals per group. The source says:
Male Wistar rat of approximately 300 g weight was anaesthetised using 5% halothane and maintained at 3% for the duration of the surgical procedure. The rat was subjected to a ⅚th subtotal nephrectomy (SNx) by ligation of the left renal artery and vein followed by complete nephrectomy of the left kidney. The right kidney had both the upper and lower poles ligated followed by excision of both poles. A 9-cm cannula (0.32 mm bore) was sealed on one end and fenestrated between 3 and 12 mm from the sealed end. This was then inserted through the parenchyma (cut to cut/pole to pole) of the kidney so that the blunt end was just visible through one of the cut ends. This was then sealed in position using tissue glue on both ends of the kidney such that the fenestrated area was within the remnant kidney. The cannula was passed through the muscle wall, which was then stitched using reabsorbable sutures. The cannula was then attached to the regulator of a 2 ml osmotic minipump (Azlet osmotic minipump (2 ml4), Charles Rivers, UK) that was loaded (primed for 15 hrs at RT) with either PBS (SNx) or TGase inhibitor 281 or 283 (SNx+281 and SNx+283, respectively) at a concentration of 50 mM (delivery 1.5 μl per hour). The pump was then positioned subcutaneously on the right upper flank of the animal and the skin sutured. The animal was then switched onto oxygen and allowed to partially regain consciousness before being returned to the cage. The pump was changed every 28 days under halothane anaesthesia. […] The animal was then anaesthetised, the remnant kidney recovered and a terminal blood sample collected.
Proteinuria, creatinine clearance, serum clearance, urine creatinine and urine urea were carried out by standard clinical chemistry techniques (Johnson et al., 1997, J. Clin. Invest. 99:2950-2960). Creatinine and urea were measured by the standard autoanalyser technique and proteinura by the Biuret method (Johnson et al., supra). Data represent mean values ±SE, taken from 5 animals per group.

On to `C[S+](C)CC(=O)CCC(NC(=O)C(Cc1ccccc1)NC(=O)OCc1ccccc1)C(=O)O` [Compound 281, N-Benzyloxycarbonyl-L-phenylalanyl-6-dimethylsulfonium-5-oxo-L-norleucine], for which, at tissue transglutaminase, the “tTGase-mediated crosslinking of fibronectin (FIG. 22)” value is on record as “inhibition”. In addition, the “TGase activity by 14C-putrescine incorporation in kidney homogenates (FIG. 25b)” value with TGase [1] is “inhibition”. Also, the “In situ TGase activity in kidney cryostat sections (FIG. 25a)” value with TGase [2] was “inhibition”. Further, in the test on SNx rats, the “Proteinuria, Mean” value was 503 mg/24 h; the Serum creatinine, Mean amounted to 208 µM; the “Serum urea, Mean” value stood at 22.32 mM/L; the Urine creatinine, Mean stood at 4000 µM. Besides, the “Urine urea, Mean” value in the test on SNx rats is reported as 372 mM/L.

For `CC(=O)CSc1n(C)cc[n+]1C.[Cl-]` [Compound 283, 1,3-dimethyl-2-(2-oxopropylsulfanyl)-3H-1,3-diazol-1-ium-chloride, reference compound], in the test on TGase [1], the “TGase activity by 14C-putrescine incorporation in kidney homogenates (FIG. 25b)” value is listed as “inhibition”. In the test on TGase [2], the “In situ TGase activity in kidney cryostat sections (FIG. 25a)” value is listed as “inhibition”. Besides, in the test on SNx rats, the “Proteinuria, Mean” value is given as 835 mg/24 h; the Serum creatinine, Mean came to 114 µM; the “Serum urea, Mean” value stood at 16.3 mM/L; the Urine creatinine, Mean worked out at 3140 µM. Also, the “Urine urea, Mean” value with SNx rats was found to be 272 mM/L.

`C[S+](C)CC(=O)CCC(NC(=O)C(CCC(N)=O)NC(=O)OCc1ccccc1)C(=O)O` [Compound 285, N-Benzyloxycarbonyl-L-glutaminyl-6-dimethylsulfonium-5-oxo-L-norleucine]: the “tTGase-mediated crosslinking of fibronectin (FIG. 22)” value on tissue transglutaminase was “inhibition”.
